Key:
[1] = Pharmacokinetics study, subcutaneous apixaban injection (Embodiment 4); type: in vivo, humans; details: human, plasma, sc, 2.5 mg, plasma drug concentration of apixaban, 1 mL of 2.5 mg/mL apixaban injection subcutaneously
[2] = cited from earlier work
[3] = cited from earlier work; remark: listed apart in the source

COc1ccc(-n2nc(C(N)=O)c3c2C(=O)N(c2ccc(N4CCCCC4=O)cc2)CC3)cc1 [apixaban, Apixaban]
concentration at 0 h ([1]; Mean of three subjects): 0 µg/mL | concentration at 0.25 h ([1]; Mean of three subjects): 0.00619 µg/mL | concentration at 0.5 h ([1]; Mean of three subjects): 0.0145 µg/mL | concentration at 1 h ([1]; Mean of three subjects): 0.0271 µg/mL | concentration at 2 h ([1]; Mean of three subjects): 0.0406 µg/mL | concentration at 3 h ([1]; Mean of three subjects): 0.0473 µg/mL | concentration at 4 h ([1]; Mean of three subjects): 0.0512 µg/mL | concentration at 5 h ([1]; Mean of three subjects): 0.0434 µg/mL | concentration at 6 h ([1]; Mean of three subjects): 0.0416 µg/mL | concentration at 8 h ([1]; Mean of three subjects): 0.0393 µg/mL | concentration at 10 h ([1]; Mean of three subjects): 0.0322 µg/mL | concentration at 16 h ([1]; Mean of three subjects): 0.0212 µg/mL | concentration at 24 h ([1]; Mean of three subjects): 0.0138 µg/mL | concentration at 0 h ([1]; subject C-01): 0 µg/mL | concentration at 0.25 h ([1]; subject C-01): 0.00808 µg/mL | concentration at 0.5 h ([1]; subject C-01): 0.0182 µg/mL | concentration at 1 h ([1]; subject C-01): 0.0358 µg/mL | concentration at 2 h ([1]; subject C-01): 0.052 µg/mL | concentration at 3 h ([1]; subject C-01): 0.0621 µg/mL | concentration at 4 h ([1]; subject C-01): 0.0688 µg/mL | concentration at 5 h ([1]; subject C-01): 0.0524 µg/mL | concentration at 6 h ([1]; subject C-01): 0.0488 µg/mL | concentration at 8 h ([1]; subject C-01): 0.0467 µg/mL | concentration at 10 h ([1]; subject C-01): 0.0376 µg/mL | concentration at 16 h ([1]; subject C-01): 0.0228 µg/mL | concentration at 24 h ([1]; subject C-01): 0.0143 µg/mL | concentration at 0 h ([1]; subject C-02): 0 µg/mL | concentration at 0.25 h ([1]; subject C-02): 0.00536 µg/mL | concentration at 0.5 h ([1]; subject C-02): 0.0143 µg/mL | concentration at 1 h ([1]; subject C-02): 0.0238 µg/mL | concentration at 2 h ([1]; subject C-02): 0.0379 µg/mL | concentration at 3 h ([1]; subject C-02): 0.0432 µg/mL | concentration at 4 h ([1]; subject C-02): 0.0448 µg/mL | concentration at 5 h ([1]; subject C-02): 0.0381 µg/mL | concentration at 6 h ([1]; subject C-02): 0.0404 µg/mL | concentration at 8 h ([1]; subject C-02): 0.0334 µg/mL | concentration at 10 h ([1]; subject C-02): 0.0289 µg/mL | concentration at 16 h ([1]; subject C-02): 0.0192 µg/mL | concentration at 24 h ([1]; subject C-02): 0.0114 µg/mL | concentration at 0 h ([1]; subject C-03): 0 µg/mL | concentration at 0.25 h ([1]; subject C-03): 0.00513 µg/mL | concentration at 0.5 h ([1]; subject C-03): 0.0109 µg/mL | concentration at 1 h ([1]; subject C-03): 0.0217 µg/mL | concentration at 2 h ([1]; subject C-03): 0.0319 µg/mL | concentration at 3 h ([1]; subject C-03): 0.0366 µg/mL | concentration at 4 h ([1]; subject C-03): 0.04 µg/mL | concentration at 5 h ([1]; subject C-03): 0.0397 µg/mL | concentration at 6 h ([1]; subject C-03): 0.0355 µg/mL | concentration at 8 h ([1]; subject C-03): 0.0376 µg/mL | concentration at 10 h ([1]; subject C-03): 0.0301 µg/mL | concentration at 16 h ([1]; subject C-03): 0.0216 µg/mL | concentration at 24 h ([1]; subject C-03): 0.0158 µg/mL | oral bioavailability [2]: approximately 50% | ionization ([3]; at physiological pH (1.2 to 6.8)): not ionized | LogP [3]: 3.53 | solubility ([3]; in the physiological pH range (1.2 to 6.8)): about 0.04 mg/ml

From patent publication US20210299059A1, “INJECTABLE PHARMACEUTICAL COMPOSITION AND PREPARATION METHOD THEREFOR” (Jiangsu Hengrui Medicine CO., LTD., priority 2018, published 2021)
